Source: ChEMBL document CHEMBL3507680, “University of Dundee, Gates Library screen for HepG2 cell viability”

Assay: Human HepG2 cell viability assay in 384 well format
Assay type: toxicity, cell-based
Set-up: dose 125 nL, time 70.5 hour; cytotoxicity at 70.5 h: concentration not given beside the values
Conditions: HepG2 cells, read-out: Inhibition

Row | SMILES | cytotoxicity at 70.5 h [%]
1 | O=C(NCCc1cc(F)ccc1F)NCC(O)C1CC1 (stereo not drawn) | 11.6
2 | O=C(NCCCO)NCCc1cc(F)ccc1F | -0.605
3 | O=C(O)c1cc(/C=C/c2ccccc2)ncn1 | -5.54
4 | CC1CN(C)c2ccccc2CN1CCn1cncn1 (stereo not drawn) | -0.327
5 | CC(Nc1ccc(C(F)(F)F)cc1C#N)c1cccc(S(N)(=O)=O)c1 (stereo not drawn) | 9.79
6 | CC(Nc1c(F)cc(C#N)cc1F)c1cccc(S(N)(=O)=O)c1 (stereo not drawn) | -9.34
7 | COc1ccc(CN2CCn3cccc3C2C)cc1F (stereo not drawn) | -3.79
8 | COCCCN1Cc2cccc(NC(=O)c3ccccc3C)c2C1 | 15.2
9 | CC(C)c1ocnc1C(=O)Nc1cccc(Cn2ccccc2=O)c1 | 19
10 | O=C(NCc1cccnc1-n1cncn1)c1cc(Cl)ccn1 | 12.4
11 | COc1cc2c(cc1OC)CN(C(=O)NCC1CCCO1)CC2 (stereo not drawn) | -3.43
12 | c1csc(N2CCCN(c3ncnc4sccc34)CC2)n1 | 10.8
13 | O=C(NCc1ccc(-n2cncn2)nc1)c1cc[nH]n1 | -4.63
14 | COc1ccc2c(c1)CCCN(C(=O)NCC1CCCO1)C2 (stereo not drawn) | -8.68
15 | COc1ccc(N2CCC(NC(=O)c3ccc(C#N)cc3)CC2)cc1 | -4.31
16 | Cc1ccc(CNC(C)(C)c2noc(C(C)(C)C)n2)o1 | -1.89
17 | COc1ncnc(N)c1CNCCc1ccccc1 | -2.72
18 | CC(C)OCCN1CCC(Nc2ncccn2)CC1 | 0.193
19 | CN1CCC(NC(=O)c2cc(Cl)cc(Br)c2O)C1=O (stereo not drawn) | -5.52
20 | COc1ccsc1C(=O)NC1CCN(c2ccc(C#N)cc2)CC1 | -5.67
21 | CCN1CCN(C(=O)C2CCOC2)c2ccccc21 (stereo not drawn) | 21
22 | CC(C)COc1cncc(N2CCCC(CC(N)=O)C2)n1 (stereo not drawn) | -1.79
23 | CCC(=O)NC1CCCN(c2cncc(OCc3ccccc3)n2)C1 (stereo not drawn) | -0.318
24 | NC(=O)CC1CCCN(c2cncc(OCc3ccccc3)n2)C1 (stereo not drawn) | 21.3

Row | SMILES | cytotoxicity at 70.5 h [%]
25 | Cc1cnc(CCNC(=O)NCCc2ccc(O)cc2)s1 | -3.5
26 | CCc1nnc(C(C)N2CCN(CCC(C)(C)C)CC2)o1 (stereo not drawn) | -7.09
27 | CC1CN(c2ncnc3c2cnn3C)CCN1c1nccs1 (stereo not drawn) | -4.86
28 | COc1ccc(C(C)NCCc2ccc(NC(C)=O)cc2)c(OC)c1 (stereo not drawn) | 0.0966
29 | COc1ccc(C(C)NCCc2ccc(NC(C)=O)cc2)cc1F (stereo not drawn) | -4.18
30 | CC(O)CN1CCN(Cc2coc(-c3cccc(Cl)c3)n2)CC1 (stereo not drawn) | -1.14
31 | OCCN1CCN(Cc2coc(-c3ccccc3Cl)n2)CC1 | -19.7
32 | COC(=O)c1ccc(C(=O)NCc2ccco2)nc1 | -8.73
33 | Cc1cc(C(=O)N2CCNC(=O)C2)c(C)n1Cc1ccccn1 | -5.56
34 | NC(=O)C(NC1CCN(CC2CCCCC2)CC1)c1ccccc1 (stereo not drawn) | -4.82
35 | CN(C)CCCNc1ncnc2cccc(F)c12 | 15.7
36 | O=C(O)c1ncccc1OCC(F)(F)F | -0.00705
37 | CCn1cc(C(=O)NCC(OC)c2cccc(Cl)c2)cn1 (stereo not drawn) | -2.35
38 | CC(O)CN1CCN(C(=O)CCOC(C)C)CC1 (stereo not drawn) | -3.79
39 | COc1ccc(CN(C)CCS(=O)(=O)c2ccc(Cl)cc2)cc1OC | -12.9
40 | COc1ccc(CCNC(=O)C(C)Nc2ccc(C)c(C)c2)cc1 (stereo not drawn) | 21
41 | COc1ccc(CCNC(=O)C(C)Nc2cccc(C)c2C)cc1 (stereo not drawn) | -4.88
42 | CCN1CCN(C(C)CNC(=O)Nc2nnc(C(C)C)s2)CC1 (stereo not drawn) | -12.4
43 | Cc1nc(CN2CCN(C(=O)c3ccc(=O)n(C)c3)CC2)cs1 | -2.46
44 | CCCn1cc(NC(=O)c2ccc(N(C)CC)cc2)ccc1=O | -7.67
45 | COc1cccc(CN(C)c2ncc(C(N)=O)cc2Cl)c1 | -4.58
46 | CN(Cc1ccc(C#N)cc1)c1ncc(C(N)=O)cc1Cl | -7.36
47 | CCCn1cc(NC(=O)c2cccnc2O)ccc1=O | -1.07
48 | COC(=O)c1sc2cccc(F)c2c1CNC(=O)C1CCCO1 (stereo not drawn) | 6.87

Row | SMILES | cytotoxicity at 70.5 h [%]
49 | CC(C)(O)CN1CCN(C(=O)c2cccn2Cc2ccncc2)CC1 | -9.5
50 | Cn1cc(C(=O)N2CCN(Cc3cscn3)CC2)ccc1=O | 4.94
51 | Cc1csc(C2(NC(=O)CCc3ccncc3)CCCC2)n1 | -7.21
52 | Cc1cc(CN2CCN(C(=O)c3ccc(=O)n(C)c3)CC2)no1 | -5.04
53 | CCn1ccnc1CN1CCCC1C(=O)Nc1nccs1 (stereo not drawn) | -5.23
54 | Cc1cc(F)cc2c(N3CCC(S(N)(=O)=O)CC3)c(C#N)cnc12 | -4.86
55 | CC(=O)NC1CCN(c2c(C#N)cnc3c(C)cc(F)cc23)CC1 | 0.242
56 | CC(C)(C#N)c1ccccc1CN1CCC(N2CCCC2=O)CC1 | 13.9
57 | COc1cc2c(cc1CNC(=O)Cc1ccc(C)nc1)OC(C)C2 (stereo not drawn) | -6.1
58 | Cn1cc(C(=O)N2CCN(Cc3ccccn3)CC2)ccc1=O | 19.1
59 | CN(C)c1ccccc1CN1CCCC(N2CCCC2=O)C1 (stereo not drawn) | -8.7
60 | Cc1cc(C)c2ncc(C#N)c(N3CCS(=O)(=O)CC3)c2c1 | -7.23
61 | CCOCCC(=O)N1CCN(CC(C)O)CC1 (stereo not drawn) | 16
62 | CC(=O)Nc1cccc(CN2CCCC2C(=O)Nc2nccs2)c1 (stereo not drawn) | 17.5
63 | CN(C)C(C)(C)CNCc1c[nH]nc1-c1cc2ccccc2o1 | 10
64 | CCN(CC)CCn1cc(NC2CCN(C(C)(C)C)CC2)cn1 | 5.68
65 | CC(=O)N(C)Cc1cccc(NC(=O)CCCc2nc(C(C)C)no2)c1 | 9.44
66 | CCN(CC(=O)Nc1cc(Cl)ccc1C)C(=O)c1ccncc1 | -1.81
67 | CCN(CC(=O)Nc1cc(Cl)ccc1C)C(=O)c1cnccn1 | 0.456
68 | CCCNC(=O)CNC(=O)c1scnc1C | 3.25
69 | Cc1cc(C(=O)Nc2ccc3c(ccn3CCN3CCOCC3)c2)on1 | -5.31
70 | Cc1nc(N2CCC(CN3CCCC3)CC2)c2cnn(C)c2n1 | -2.49
71 | Cn1ncc2c(N3CCC(CC(=O)N4CCCC4)CC3)ncnc21 | -4.03
72 | CC1CCC(NC(=O)CNC2(c3ccc(Br)cc3)CCOCC2)CC1 (stereo not drawn) | 4.23

Row | SMILES | cytotoxicity at 70.5 h [%]
73 | CCN(CC(=O)N(C)C)C(=O)c1nc(C)n(-c2ccccc2Cl)n1 | -0.577
74 | CCC(C)C(=O)NCc1c(C)nn(C)c1N1CCCN(C)CC1 (stereo not drawn) | 1.79
75 | COC(=O)COc1ccc(-c2noc(C3CCCO3)n2)cc1 (stereo not drawn) | 24.5
76 | O=C(NCCc1noc(-c2ccccn2)n1)NCC1CCCC1 | -4.99
77 | CC(Nc1cccc2c1OCCO2)C(=O)Nc1ccc(S(N)(=O)=O)cc1 (stereo not drawn) | 25.1
78 | CCc1ccc(NC(=O)C(C)Nc2cccc3c2OCCO3)cc1 (stereo not drawn) | 2
79 | CC(=O)N1CCN(C(=O)CN2CCCC2c2c(C)nn(C)c2C)CC1 (stereo not drawn) | 7.11
80 | Cn1cc(CC2CC(=O)N(Cc3ccc(OC(F)F)cc3)C2=O)cn1 (stereo not drawn) | 3.06
81 | Cc1nn(C)c(N2CCCN(C)CC2)c1CNC(=O)CCC(C)C | -1.98
82 | CCOCCC1(CNC(=O)c2ccncc2)CCC1 | -5.08
83 | CCN(CC)CCn1cc(NC2CCSCC2)cn1 | -1.75
84 | CCc1nc(CN(C)CC(=O)N(C)C2CC2)cs1 | -12.2
85 | Cc1n[nH]c(C2CN(C(=O)CCOCC(F)(F)F)CCO2)n1 (stereo not drawn) | -10.1
86 | O=C(Cn1cccn1)Nc1ccc(N2CCCCC2)cc1 | 31.5
87 | COCCS(=O)(=O)Cc1csc(NC(C)=O)n1 | -16
88 | Cc1nn(CC(C)C)c(C)c1CC(=O)N1CCCC(NS(C)(=O)=O)C1 (stereo not drawn) | -3.7
89 | O=C(NCC(O)COc1ccc(C(F)(F)F)cc1)Nc1nncs1 (stereo not drawn) | -12.1
90 | CCOc1ccc(NCC(=O)NCC(=O)N2CCCC2)c(C(F)(F)F)c1 | -11.7
91 | O=C(NCC1CCS(=O)(=O)C1)c1cccc(CN2CCCC2)c1 (stereo not drawn) | -16
92 | NC(=O)C1CCN(CCc2ccc(NCc3ccoc3)cc2)CC1 | -5.59
93 | Cn1cc(CNc2ccc(CCN3CCC(C(N)=O)CC3)cc2)cn1 | 13.6
94 | CC(NC1CCN(C(=O)C2CCCCC2)CC1)c1nccs1 (stereo not drawn) | -6.15
95 | C=C(C)CN(CC)S(=O)(=O)c1cccc(F)c1C#N | -9.8
96 | COc1ccc(NC(C)c2ccc(C#N)cc2)cc1N1CCCC1=O (stereo not drawn) | 1.58

Row | SMILES | cytotoxicity at 70.5 h [%]
97 | CCN(C(C)c1cccc(O)c1)S(=O)(=O)c1cccnc1 (stereo not drawn) | 5.84
98 | COc1ccc(F)c(NCc2cnn(C3CCS(=O)(=O)C3)c2)c1 (stereo not drawn) | 8.41
99 | Cc1ncc(CN(C)C(=O)Nc2cccc(N3CCNC3=O)c2)s1 | -3.19
100 | COc1ccc(CNC(=O)Nc2ccc(=O)n(C)c2)cc1 | -3.5
101 | Cn1cc(NC(=O)NCc2ccsc2)ccc1=O | -2.03
102 | CC(NC(=O)c1cccc[n+]1[O-])c1ccc2c(c1)CCC(=O)N2 (stereo not drawn) | -3.74
103 | CCOC1CCN(C(=O)c2ccc(-n3ncc(C#N)c3N)cc2)CC1 | -0.409
104 | Cc1csc(C2CCCCN2C(=O)COCc2nc(C)no2)n1 (stereo not drawn) | -4.26
105 | CCN(CC)C(=O)c1cc(Br)cc(S(=O)(=O)N2CCOCC2)c1F | -2.06
106 | Cc1ccc(CN(C(=O)C(C)NC(N)=O)C2CC2)cc1C (stereo not drawn) | 25.3
107 | CC(C)NC(=O)c1cc(Br)cc(S(=O)(=O)N2CCOCC2)c1F | -0.805
108 | CCCC1SCCN1C(=O)c1ccc(-n2ncc(C#N)c2N)cc1 (stereo not drawn) | -3.53
109 | CC(=O)NC(C)C(=O)N(Cc1ccc(C)c(C)c1)C1CC1 (stereo not drawn) | 0.332
110 | Cn1cc(NC(=O)c2cccc(C(F)(F)F)c2)c(=O)n(C)c1=O | -2.92
111 | Cc1cc(C(=O)O)ccc1NS(=O)(=O)c1c(C)nn(C(C)C)c1C | -5.01
112 | Cc1ccc(CNc2ccn(CCc3ccncc3)n2)s1 | 2.73
113 | Cc1noc(COCC(=O)N2CCCCC2c2nccs2)n1 (stereo not drawn) | -8.06
114 | Cn1cc(S(=O)(=O)N2CCCC2Cn2ccnc2)cc1C(N)=O (stereo not drawn) | -5.85
115 | Cc1nc(C)c(CCNC(Cc2ccncc2)C(F)(F)F)s1 (stereo not drawn) | 2.53
116 | Cc1noc(COCC(=O)N2CCCC(c3nccs3)C2)n1 (stereo not drawn) | -6.88
117 | Cc1cc(N2CCOCC2)ccc1NC(C)c1nc(C(C)(C)C)no1 (stereo not drawn) | -6.63
118 | CCOC(=O)c1cnn(C2CCN(C(=O)CC3C=CCC3)CC2)c1N (stereo not drawn) | -1.64
